# Test results published in patent publication US20030096022A1, “Compositions and methods for the treatment and prevention of cardiovascular diseases and disorders, and for identifying agents therapeutic therefor” (Medlyte, Inc., priority 2000, published 2003).
# What was measured:
# [1] = system: Adult rat cardiomyocytes; assay: Hypoxia-induced sphingosine (SPH) production/release in cultured adult cardiomyocytes, HPLC of extracted sphingolipids; format: cell-based; conditions: cells pretreated 30 min with TNFRII:Fc 0.5 ng/mL or L-carnitine 20 ng/mL prior to 5 h hypoxia, FIG. 4
# Procedure: Adult rat cardiomyocytes were subjected to hypoxic conditions as described above and assayed for their ability to produce sphingolipid bases involved in the sphingomyelin signal transduction cascade.
# Cardiomyocytes were cultured on plastic dishes that were placed in a humidified modular incubator chamber (ICN Biomedicals, Aurora, Ohio) pressurized to 0.04-0.05 psi by the particular gas mixture used in the treatment. Warm (37° C.) Tyrode's solution containing 0.2 mM BSA, ampicillin ([…]), kanamycin (100 mg/mL) and fungizone (20 μg/mL) was gassed in a 50 mL sterile conical for 15 minutes with 95%N2/5% CO2 prior to adding the solution to the cultured cells. The pO2 was monitored by a Micro pO2 System oxygen electrode (Lasar Research Labs, Los Angeles, Calif.) and found to be 4.0 PPM for the duration of the hypoxia condition. […] The pH of control and experimental cell cultures was monitored with a micro pH electrode (Beetrode pH Electrodes, Sarasota, Fla.) and remained constant at pH=7.26+/−0.02 for normoxic cells and 7.15+/−0.03 for hypoxic cells throughout the experiment. […]
# The HPLC analysis was performed using a Beckman (Fullerton, Calif.) System Gold 118 Solvent Module and 507e Autosampler. A Jasco (Easton, Md.) FP-920 Intelligent Fluorescence Detector was used with an excitation wavelength of 330 nm and emission wavelength of 455 nm. […]
# [2] = system: Langendorff rat heart model of ischemia; assay: Global ischemia and reperfusion in isolated Langendorff-perfused rat heart (left ventricular pressure); conditions: 0.1 mM gentamicin recirculated 30 min, 40 min global ischemia, 45 min reperfusion; FIG. 5
# Source text: The protocol used was essentially that described by Sakai et al. (A device for recording left ventricular contraction and electrocardiogram in nonworking isolated perfused rat heart, Jpn J Pharmacol 28:223-9, 1978), and Zelinski et al., (Phosphatidylcholine biosynthesis in isolated hamster heart, J Biol Chem. 255:11423-8, 1980) with the exception, in the latter instance, that rat studies were used in the experiments described herein instead of hamster hearts.
# In brief, rats were anesthetized and their hearts were excised. The isolated hearts were cannulated and attached to Langendorff perfusion apparatus, and perfused with KH buffer. The hearts were allowed to stabilize for 5-10 min. After stabilization, the hearts should be paceable and drip rate should be between 5 and 10 mls per minute.
# A small hole was cut in the left atrium of each animal to expose the mitral valve. A deflated transducer balloon was introduced into the left ventricle through the hole in left atrium. The transducer tube was taped and adjusted so that there was no pressure on the heart. Left ventricular pressure was measured and recorded using the MacLab program. […]
# After about 45 min., the perfusate was turned off and the ventricular pressure was no longer recorded. […]
# [3] = target: tumor necrosis factor alpha (TNFα) released by hypoxic rat cardiomyocytes (rat) (UniProt P16599); assay: cell-based or functional assay
# Chain of tumor necrosis factor alpha (TNFα) released by hypoxic rat cardiomyocytes (rat) (P16599 80-235 limits assumed): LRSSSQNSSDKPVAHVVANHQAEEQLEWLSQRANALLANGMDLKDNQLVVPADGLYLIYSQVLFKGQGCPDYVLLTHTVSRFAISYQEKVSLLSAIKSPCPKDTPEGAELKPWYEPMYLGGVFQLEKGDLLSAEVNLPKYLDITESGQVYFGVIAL
molecule,measurement,setting,value
C[N+](C)(C)C[C@H](O)CC(=O)[O-] [L-carnitine],reducing the amount of total SPH (hypoxia-induced production of sphingosine),[1],significantly (p<0.01) reducing
same,reducing the amount of total SPH (hypoxia-induced production of sphingosine),[1]; listed as L-camitine,blocks
Gentamicin Sulfate,ischemia and reperfusion injury,[2],mitigated
TNFRII:Fc receptor fragment (from UniProt P20333 23-257) (Fc fusion),SPH release from hypoxic adult rat cardiomyocytes (HPLC),[3],3 fold
